Broadly, the Ki is the equilibrium dissociation constant of an inhibitor or competing ligand from its target. High values mean weaker binding, low ones tighter binding.

The source of these data is US9889115B2, “Fitness assay and associated methods” (priority 1998, dated 2018).

One experiment concerns wild-type HIV. In words: wild-type antiretroviral activity (Table 4). The note with it: Human immunodeficiency virus 1, read-out: ID50.
Experiment [1] has as its system HIV-1LAI. Briefly: MT-2 cells, MTT assay. Format: cell-based. The note with it: HIV-1LAI; MT-2/MTT, day 7. How it is done: All drug sensitivities were performed in triplicate. […] The IC50's were determined using the MTT assay on day 7 of culture. All sensitivities were determined in […].
For experiment [2], the target named is T1, HIV-1 protease V82F/I84V (Human immunodeficiency virus type 1 group M subtype B, UniProt P04585, I572V/V570F).
T1 construct: the proteases of wild-type HIV-1 (WT) and various mutant enzymes
Briefly: continuous fluorogenic HIV protease assay. Type of experiment: biochemical. The following applies: V82F/I84V (Table 7). How it is done:
(§1) This example describes the protocol for the sensitive continuous fluorogenic assay for HIV protease of the present invention and its application. […] The inhibition constant for wild-type HIV-1, Kimnt/Kiwt ratio, and vitality were measured.
(§2) The reaction was initiated by the addition of 5 μl of substrate stock solution in water. […] The initial rate of hydrolysis was calculated by second degree polynomial fit using SLM AB2 2.0 operating software.
(§3) For inhibition studies, inhibitors were prepared as stock solutions at different concentrations in dimethylsulfoxide. […] The reaction was initiated by the addition of 5 μl of substrate stock solution in water. For data analysis, the mathematical model for tight-binding inhibitors was used.

For experiment [3], the target named is T2, wild-type HIV-1 (WT) protease (Human immunodeficiency virus type 1 group M subtype B, UniProt P04585).
T2 construct: the proteases of wild-type HIV-1 (WT)
Briefly: continuous fluorogenic HIV protease assay. Format: biochemical. The note with it: WT (Table 7). The procedure: as §1, §2, §3

Experiment [4] concerns the target HIV-1 protease V82F/I84V. In words: continuous fluorogenic HIV protease assay. Format: biochemical. The note with it: for KI-wt/KI-mut: V82F/I84V (Table 7); for Fitness: V82F/I84V relative to WT (Table 7). How it is done: as §1, §2, §3
Another experiment deals with HIV-1BAL. In words: PHA-PBMC assay, p24 Gag protein production. Format: cell-based. The note with it: HIV-1Ba-L; PBMC/p24, day 7 (Table 8).
Experiment [5] deals with HIV-1LAI. In words: PHA-PBMC assay, p24 Gag protein production. Type of experiment: cell-based. The following applies: HIV-1LAI; PBMC/p24, day 7 (Table 8).
The target of the next experiment is T3, HIV-1 protease G48V/V82A (Human immunodeficiency virus type 1 group M subtype B, UniProt P04585, G536V/V570A).
T3 construct: proteases containing the deleterious drug resistance associated mutations V82F/I84V and G48V/V82A
Briefly: continuous fluorogenic HIV protease assay. Type of experiment: biochemical. The following applies: for KI-wt/KI-mut / Ki: G48V/V82A; for Fitness: G48V/V82A relative to WT. How it is done: This example describes the protocol for the sensitive continuous fluorogenic assay for HIV protease of the present invention and its application. […] 21702-1201, upon written request. The inhibition constant for wild-type HIV-1, Kimnt/Kiwt ratio, and vitality were measured. (See Gulnik et al., Biochemistry, 34, 9282-9287 (1995). Protease activity was measured using the fluorgenic substrate Lys-Ala-Arg-Val-Tyr-Phe(NO2)-Glu-Ala-Nle-NH2 (Bachem Bioscience, Inc.). (See Peranteau et al., D.H. (1995) Anal. Biochem.).
The reaction was initiated by the addition of 5 μl of substrate stock solution in water. Increase in fluorescence intensity at the emission maximum of 306 nm (excitation wavelength was 277 nm) was monitored as a function of time using Aminco Bowman-2 luminescence spectrometer (SLM Instruments, Inc.). The initial rate of hydrolysis was calculated by second degree polynomial fit using SLM AB2 2.0 operating software.
For inhibition studies, inhibitors were prepared as stock solutions at different concentrations in dimethylsulfoxide. […] The reaction was initiated by the addition of 5 μl of substrate stock solution in water. For data analysis, the mathematical model for tight-binding inhibitors was used. (See Williams and Morrison (1979), In: Methods of Enzymol. 63, (ed. D. L. Purich), 437-467, Academic Press, NY, London). […]
This example describes the inhibitory activity of compounds 35 (FIG. 5A), 36 (FIG. 5B), 37 (FIG. 5C) and 38 (FIG. 5D). In accordance with the technique disclosed in Example 13 above, the inhibitory activity of these compounds was tested against proteases of the wild-type HIV-1. Compound 36, 37 and 38 were also tested against proteases containing the deleterious drug resistance associated mutations V82F/I84V and G48V/V82A. Fitness was determined in accordance with Example 13.

Bounds are passed on as bounds.

For the molecule `COc1ccc(S(=O)(=O)N(CC(C)C)CC(O)C(Cc2ccccc2)NC(=O)OC2COC3OCCC23)cc1` (centres unmarked), the IC50 with wild-type HIV was 1.4 nM.

Regarding `CC(C)CN(C[C@@H](O)[C@H](Cc1ccccc1)NC(=O)O[C@H]1CO[C@H]2OCC[C@H]21)S(=O)(=O)c1cccc(CO)c1` [Compound 38], the IC50 with HIV-1LAI [1] came out at 28 nM; in the experiment with HIV-1BAL, 9.3 nM; in the experiment with HIV-1LAI [5] it was 8 nM. Moreover, the Ki was 0.0668 nM at HIV-1 protease V82F/I84V [2], greater than 0.005 nM in experiment [3] and 0.034 nM at HIV-1 protease G48V/V82A. Also, the KI-wt/KI-mut was greater than 13 at HIV-1 protease V82F/I84V [4] and greater than 6.8 at HIV-1 protease G48V/V82A. For the same molecule, the Fitness with HIV-1 protease V82F/I84V [4] is recorded as greater than 2.1; at HIV-1 protease G48V/V82A it was greater than 1.8.

Turning to `CC(C)CN(C[C@@H](O)[C@H](Cc1ccccc1)NC(=O)O[C@H]1CO[C@H]2OCC[C@H]21)S(=O)(=O)c1cccc(O)c1` [Compound 36], the IC50 worked out at 17 nM in the experiment on HIV-1LAI [1], 38 nM in the experiment with HIV-1BAL and 34 nM with HIV-1LAI [5]. Further, the Ki at HIV-1 protease V82F/I84V [2] was 0.0244 nM; in experiment [3], less than 0.005 nM; at HIV-1 protease G48V/V82A it was 0.0153 nM. For the same molecule, the results for the KI-wt/KI-mut at HIV-1 protease V82F/I84V [4] and on HIV-1 protease G48V/V82A were greater than 4.9 and greater than 3.0, respectively. Moreover, the Fitness with HIV-1 protease V82F/I84V [4] and on HIV-1 protease G48V/V82A was greater than 0.8 in each case.

In the case of `CC(C)CN(C[C@@H](O)[C@H](Cc1ccccc1)NC(=O)O[C@H]1CO[C@H]2OCC[C@H]21)S(=O)(=O)c1ccc(CO)cc1` [Compound 37], the results for the IC50 in the experiment on HIV-1LAI [1], with HIV-1BAL and with HIV-1LAI [5] were 5.3 nM, 3 nM and 2.7 nM, respectively. Further, the results for the Ki (on HIV-1 protease V82F/I84V [2]; in experiment [3]; at HIV-1 protease G48V/V82A) were 0.0257 nM, 0.012 nM and 0.064 nM, respectively. Moreover, the KI-wt/KI-mut came to 1 in experiment [3], 2.1 on HIV-1 protease V82F/I84V [4] and 5.3 on HIV-1 protease G48V/V82A. In addition, the Fitness with HIV-1 protease V82F/I84V [4] came to 0.3; on HIV-1 protease G48V/V82A, 1.4.
